Assay: Solubility in water and aqueous medium
Assay type: physicochemical

Substance: moexitecan
- Solubility in water and an aqueous medium: insoluble or almost insoluble

From US20200338519A1, “METHOD FOR PREPARING LIPOSOME” (priority 2015, published 2020)
